From US20240148821A1, “PHARMACEUTICAL USE OF CYCLIC PEPTIDE COMPOUND” (CHUGAI SEIYAKU KABUSHIKI KAISHA, priority 2021, published 2024)
Numbered stars: 1 amine (or outer) side, 2 acyl side, 3 side chain; on linkers, the order of the positions; unused ones are H or OH. Bridge positions count the residues as written; N and C are the ends. Square brackets hold non-standard residues; d marks the D form. Peptide text beside a SMILES is read from it. * marks the point of attachment. hPhe(3,5-F2-4-CF3) = N[C@@H](CCc1cc(F)c(C(F)(F)F)c(F)c1)C(=O)O; hPhe(3-Cl-4-CF3) = N[C@@H](CCc1ccc(C(F)(F)F)c(Cl)c1)C(=O)O; hPhe(3-F,4-CF3) = N[C@@H](CCc1ccc(C(F)(F)F)c(F)c1)C(=O)O; NMePhe(4-CF3) = CN[C@@H](Cc1ccc(C(F)(F)F)cc1)C(=O)O; NEtPhe(4-Cl) = CCN[C@@H](Cc1ccc(Cl)cc1)C(=O)O; NMeAbu(4,4,4-F3) = CN[C@@H](CC(F)(F)F)C(=O)O; NMePhe(4-Me) = CN[C@@H](Cc1ccc(C)cc1)C(=O)O; NMedβ3hAla = C[C@H](CC(=O)[*:2])N(C)[*:1]; NMeGly(cPent) = CN[C@H](C(=O)O)C1CCCC1; Phe(3-I) = N[C@@H](Cc1cccc(I)c1)C(=O)O; NMeAla(cPr) = CN[C@@H](CC1CC1)C(=O)O; NMeCha = CN[C@@H](CC1CCCCC1)C(=O)O; NMeChg = CN[C@H](C(=O)O)C1CCCCC1; NMeD = CN[C@@H](CC(=O)O)C(=O)O; NMeL = CN[C@@H](CC(C)C)C(=O)O; NMeV = CN[C@H](C(=O)O)C(C)C; Trifluoroethyl = FC(F)(F)C*; d(β3hA) = C[C@@H](N)CC(=O)O; NMeS = CN[C@@H](CO)C(=O)O; Morpholide = C1CN(*)CCO1; NMeA = CN[C@@H](C)C(=O)O; NMeAib = CNC(C)(C)C(=O)O; Nle = CCCC[C@H](N)C(=O)O; Piperidide = C1CCN(*)CC1; Pra = C#CC[C@H](N)C(=O)O; Pyrrolidide = C1CCN(*)C1; dNMeA = CN[C@H](C)C(=O)O; Ac5c = NC1(C(=O)O)CCCC1; Aze = O=C(O)[C@@H]1CCN1; Sar = CNCC(=O)O

The compounds below were run on Human pancreatic cancer cell line AsPC-1 (G12D mutation Kras) (assay: AsPC-1 cell growth inhibition (AsPC-1 CGI)). Conditions: read-out: AsPC-1 cell growth inhibition, 50% growth inhibitory concentration (IC50 value); 96 hours, CellTiter-Glo, values classified in ranges.
Format: cell-based
Procedure: Test compounds were serially dilated with dimethyl sulfoxide, and 200 nL was then dispensed to a U-bottom 96-well plate using Labcyte Echo. […] The cell suspension was dispensed to a. plate containing a test compound at 100 μL per well and incubated at 37° C. in a 5% carbon dioxide gas incubator. 96 hours later, 80 μL of CellTiter-Glo (Promega) was added to each well and fluorescence was measured.
Work on `CCCC[C@@H]1NC(=O)[C@H](CC(C)C)N(C)C(=O)C[C@@H](C)NC(=O)[C@H](CC(C)C)N(C)C(=O)C2(CCCC2)NC(=O)[C@@H]2CCCN2C(=O)[C@H](CCc2ccc(C(F)(F)F)c(F)c2)NC(=O)CN(C)C(=O)[C@H](CC2CCCCC2)N(C)C(=O)CN(C)C(=O)CN(C)C1=O` [Compound 1490] (cyclo([Ac5c][NMeL][d(β3hA)][NMeL][Nle][Sar][Sar][NMeCha][Sar][hPhe(3-F,4-CF3)]P)) yielded an IC50 of over 500 nM.
Compound `CC[C@H](C)[C@@H]1NC(=O)[C@H](CC(C)C)N(C)C(=O)C[C@@H](C)N(C)C(=O)[C@H](CC(C)C)NC(=O)C(C)(C)N(C)C(=O)[C@H](CC(C)C)NC(=O)[C@H](CCc2ccc(C(F)(F)F)c(F)c2)NC(=O)CN(C)C(=O)[C@H](CC2CCCCC2)N(C)C(=O)CN(C)C(=O)[C@@H]2CCN2C1=O` [Compound 905] (cyclo([Aze][Sar][NMeCha][Sar][hPhe(3-F,4-CF3)]L[NMeAib]L[NMedβ3hAla][NMeL]I)) has an IC50 of over 500 nM.
In the case of `CC[C@H](C)[C@@H]1NC(=O)[C@H](CC(C)C)N(C)C(=O)C[C@@H](C)NC(=O)[C@H](C(C)C)N(C)C(=O)C2(CCCC2)NC(=O)[C@@H]2CCCN2C(=O)[C@H](CCc2ccc(C(F)(F)F)c(Cl)c2)NC(=O)CN(C)C(=O)[C@H](CC2CC2)N(C)C(=O)CN(C)C(=O)CN(C)C1=O` [Compound 511] (cyclo([Ac5c][NMeV][d(β3hA)][NMeL]I[Sar][Sar][NMeAla(cPr)][Sar][hPhe(3-Cl-4-CF3)]P)), the IC50 is reported as over 500 nM.
`CC[C@H](C)[C@@H]1NC(=O)[C@H](CC(F)(F)F)N(C)C(=O)C[C@@H](C(=O)N2CCOCC2)N(C)C(=O)[C@H](C2CCCCC2)N(C)C(=O)C2(CCCC2)NC(=O)[C@@H]2CCCN2C(=O)[C@H](CCc2ccc(C(F)(F)F)c(Cl)c2)NC(=O)CN(C)C(=O)[C@H](Cc2ccc(C(F)(F)F)cc2)N(C)C(=O)CN(C)C(=O)CN(C)C1=O` [Compound 981] ([NMeAbu(4,4,4-F3)]I[Sar][Sar][NMePhe(4-CF3)][Sar][hPhe(3-Cl-4-CF3)]P[Ac5c][NMeChg][NMeD]-Morpholide; lactam N-11) gave an IC50 of at most 20 nM.
`CC[C@H](C)[C@@H]1NC(=O)[C@H](C)N(C)C(=O)C[C@@H](C)NC(=O)[C@H](C2CCCC2)N(C)C(=O)C2(CCCC2)NC(=O)[C@@H]2CCCN2C(=O)[C@H](CCc2ccc(C(F)(F)F)c(Cl)c2)NC(=O)[C@@H](C)N(C)C(=O)[C@H](Cc2ccc(C)cc2)N(C)C(=O)CN(C)C(=O)CN(C)C1=O` [Compound 1465] (cyclo([Ac5c][NMeGly(cPent)][d(β3hA)][NMeA]I[Sar][Sar][NMePhe(4-Me)][dNMeA][hPhe(3-Cl-4-CF3)]P)) showed an IC50 of over 500 nM.
`C#CC[C@@H]1NC(=O)[C@H](Cc2cccc(I)c2)NC(=O)CN(C)C(=O)[C@H](Cc2ccc(C(F)(F)F)cc2)N(C)C(=O)[C@@H]2CCN2C(=O)[C@H](C)N(C)C(=O)[C@H]([C@@H](C)CC)NC(=O)[C@H](CC(C)C)N(C)C(=O)C[C@@H](C(=O)N2CCCCC2)N(C)C(=O)[C@H](CC(C)C)NC(=O)C(C)(C)N(C)C1=O` [Compound 1258] ([NMeL]I[NMeA][Aze][NMePhe(4-CF3)][Sar][Phe(3-I)][Pra][NMeAib]L[NMeD]-Piperidide; lactam N-11) gave an IC50 of over 500 nM.
`CCCC[C@@H]1NC(=O)[C@H](CCc2ccc(C(F)(F)F)c(Cl)c2)NC(=O)CN(C)C(=O)[C@H](Cc2ccc(Cl)cc2)N(CC)C(=O)CN(C)C(=O)CN(C)C(=O)[C@H]([C@@H](C)CC)NC(=O)[C@H](CC(C)C)N(C)C(=O)C[C@@H](C(=O)N2CCCCC2)N(C)C(=O)[C@H](CC(C)C)NC(=O)C(C)(C)N(C)C1=O` [Compound 895] ([NMeL]I[Sar][Sar][NEtPhe(4-Cl)][Sar][hPhe(3-Cl-4-CF3)][Nle][NMeAib]L[NMeD]-Piperidide; lactam N-11) was tested, and the IC50 was over 500 nM.
`CC[C@H](C)[C@@H]1NC(=O)[C@H](CC(C)C)N(C)C(=O)C[C@@H](C(=O)N2CCCCC2)N(C)C(=O)[C@H](COCC(F)(F)F)N(C)C(=O)C2(CCCC2)NC(=O)[C@@H]2CCCN2C(=O)[C@H](CCc2ccc(C(F)(F)F)c(Cl)c2)NC(=O)CN(C)C(=O)[C@H](CC2CCCCC2)N(C)C(=O)CN(C)C(=O)CN(C)C1=O` [Compound 208] ([NMeL]I[Sar][Sar][NMeCha][Sar][hPhe(3-Cl-4-CF3)]P[Ac5c][NMeS](Trifluoroethyl)[NMeD]-Piperidide; lactam N-11) was tested, and the IC50 was over 500 nM.
`CC[C@H](C)[C@@H]1NC(=O)[C@H](CC(C)C)N(C)C(=O)C[C@@H](C(=O)N2CCCC2)N(C)C(=O)[C@H](C2CCCC2)N(C)C(=O)C2(CCCC2)NC(=O)[C@@H]2CCCN2C(=O)[C@H](CCc2cc(F)c(C(F)(F)F)c(F)c2)NC(=O)CN(C)C(=O)[C@H](CC2CCCCC2)N(C)C(=O)CN(C)C(=O)CN(C)C1=O` [Compound 1342] ([NMeL]I[Sar][Sar][NMeCha][Sar][hPhe(3,5-F2-4-CF3)]P[Ac5c][NMeGly(cPent)][NMeD]-Pyrrolidide; lactam N-11) showed an IC50 of at most 20 nM.
